For the molecule `CNC(=O)COc1cc(-n2c(=O)cc(C(F)(F)F)n(C)c2=O)c(F)cc1Cl`, the melting point is 190 to 192 °C. With `CCNC(=O)NCc1cccc2c1C(=O)N(C1(C)CCC(=O)NC1=O)C2=O` (stereo not drawn), the melting point was 220 to 222 °C. For `CC(C)=NNC1=NCc2c[nH]c3cccc1c23` the value was 200 to 201 °C; for `CC(c1ccccc1Cl)n1cnc2cnc3ccccc3c21` (stereo not drawn), 156 to 158 °C. For `COc1ccccc1N1CCN(CCCN2C(=O)c3ccccc3C2=O)CC1` the value was 85 to 93 °C. Turning to `CC(C)c1cc2c(c(O)c1O)C1(C(=O)O)CCCC(C)(C)C1CC2` (stereo not drawn), the melting point fell in the range of 193 to 199 °C. For `Fc1cc2c(cc1Cl)C(Cl)Cc1ccccc1S2` (stereo not drawn) the value was 94 to 96 °C; for `CN(C)CCCOc1ccc(-c2nnc(-c3ccc(Oc4ccccc4)cc3)o2)cc1`, 95 °C. `COC(=O)c1nc(-c2cc(N)c(Cl)cc2F)cc(N)c1Cl` showed a melting point of 99 to 101 °C.

Turning to `Cc1oc(-c2ccccc2)nc1COc1ccc(COc2nn(C)cc2CC(=O)O)cc1`, the melting point lay in the range of 133 to 134 °C. With `O=C1Nc2ccc(Br)cc2C2(CCCC2)O1` the figure was 180 to 185 °C; with `Cc1cccc(-c2[nH]c(C(C)C)nc2-c2ccc(F)c(-c3ccc(S(C)=O)nc3)c2)n1` (stereo not drawn), 100 to 102 °C.

`COc1cccc2c1C(C)(C)C(=O)N2`: the melting point was 143 to 144 °C. With `COc1cc(C(=O)NS(=O)(=O)c2ccccc2)ccc1Cn1ccc2ccc(N)cc21` the figure was 151 to 155 °C; with `COC(=O)Cc1cccc(Cc2ccccc2C(=O)O)c1`, 67 to 70 °C. With `Cc1ccc(Sc2c(Sc3ccc(C)cc3)c(Sc3ccc(C)cc3)c(C(O)=NCCO)c(C(=O)O)c2Sc2ccc(C)cc2)cc1` the figure was 161 to 162 °C. In the case of `CCSc1cnc(Oc2ccc(Cl)c(Cl)c2)cc1C#N`, the melting point was in the range of 68 to 69 °C. With `Cn1c([N+](=O)[O-])cnc1-c1nnc2ccc(N=C(N)CCO)nn12`, the melting point lay within 191 to 192 °C. For `CN1C(=O)N(c2cc(Cl)cc(Cl)c2)C(=O)[C@]12CN(CC(=O)O)C[C@H]2c1ccc(C#N)cc1` (relative stereo) the value was 220 °C; for `CN1CC(CN)Oc2c(-c3ccc(Cl)cc3Cl)cccc21` (stereo not drawn), 90 °C. Regarding `O=[N+]([O-])c1ccc(-n2ccnn2)c(F)c1`, the melting point lay in the range of 123 to 124 °C. In turn, `COC(=O)C1CCc2oc3cc(OC)ccc3c2C1=O` (stereo not drawn) registered a melting point of 173 to 175 °C. For `C=CCOc1ccc(OC(C(O)C(C)(C)C)n2cncn2)cc1` (stereo not drawn) the value was 85 °C; for `N#CC1(c2cccs2)C2CC3CC(C2)CC1C3` (stereo not drawn), 108 to 110 °C.

As to `CCCN(CCC)c1nc2c(N3CCCC3)nccc2c(=O)[nH]1`, the melting point was determined as 220 °C. For `COc1cccc(CC(=O)O)c1OCCCc1cn(-c2ccc(Br)cn2)nc1C(C)C` the value was 152 to 153 °C; for `FC(F)(F)c1cccc(CSc2nnc(-c3ccn4ncnc4c3)o2)c1`, 147 to 148 °C. With `Cc1nc2nc[nH]c2c(=O)[nH]1` the figure was over 300 °C; with `CC(C)c1ccc2c(CCCCNS(=O)(=O)c3ccccc3)cc(C(=O)O)c-2cc1`, 167 to 168 °C. For `CCOC(=O)c1cnoc1-c1ccc(F)cc1` the value was 34 to 38 °C. Molecule `O=C(O)c1ccc(OCCNC(=O)C2Cc3ccccc3N2S(=O)(=O)c2ccc(-c3ccc(F)cc3F)cc2)cc1` (stereo not drawn) registered a melting point of 92 °C.

`CSc1ccc(N=Cc2ccc(F)cc2)cc1` returned a melting point of 157 to 158 °C. For `NC(Cc1ccccc1-c1ccc(C(=O)N2Cc3ccc(C(=O)NCc4cccnc4)n3Cc3ccccc32)cc1)=NO` the value was 131 to 134 °C.

`COC(=O)Nc1nc(C(=O)C(=O)OC)ns1` showed a melting point of 112 to 117 °C. In the case of `O=C1CC2(CCCC2)CC(=O)N1CCCCN1CCN(c2noc3cc(Cl)ccc23)CC1`, the melting point was 128 °C. In turn, `CCCCOC(=O)c1c(-c2cnccn2)ssc1=S` had a melting point of 127 °C. With `Cc1ccccc1Oc1cc(Cl)ccc1C(=O)O` the figure was 158 to 159 °C; with `Cc1ccccc1-c1cc(C(C)(C)C)c(O)c(C(C)(C)C)c1`, 85.5 to 87.5 °C; with `CN(C)c1ccc(C2CC3(C)C(O)CC(O)C3C3CCC4CC5(CCC4=C23)OCCO5)cc1` (stereo not drawn), 107 to 109 °C.

`CC(CCC(=O)NN1CCN(C)CC1)C1CC=C2C3=C(CCC21C)C1(C)CCC(O)C(C)(C)C1CC3` (stereo not drawn) displayed a melting point of 189 to 191 °C. `Cc1ccc2nc(-c3ccc(C#N)cc3)cn2c1` displayed a melting point of 225 to 226 °C. For `CS(=O)(=O)Nc1cccc(Nc2nc(NCCN3CCOCC3)c3nc[nH]c3n2)c1` the value was 233 to 237 °C; for `COc1ccc(CNc2cc3c(Nc4ccc(Br)c(Br)c4)ncnc3cn2)cc1`, 166 to 169 °C; for `CSc1nnc(N(C(=O)CCl)c2c(C)cccc2C)n1C`, 145 to 147 °C. With `O=C(Nc1cccc(C(F)(F)F)c1)Nc1ccc(Oc2ncnc3cc[nH]c23)cc1Cl` the figure was 316 to 319 °C.

Molecule `CS(=O)(=O)CCCn1c(=NC(=O)c2cccc(Cl)c2)sc2cc(OC(F)(F)F)ccc21` displayed a melting point of 188 °C.

Regarding `CCCc1nc(C)cn1-c1nc(OC)ccc1N`, the melting point was in the range of 124 to 128 °C. For `CCOC(=O)[C@H]1O[C@@H]1C(=O)N[C@H](COCC(=O)N(C)C)CC(C)C` the value was 64 to 65 °C; for `O=C1COc2ccc(C3=Cc4ccccc4OC3c3ccccc3)cc2N1` (stereo not drawn), 246 to 249 °C. `O=C(NCCO)c1cccc(-c2cccc3nn(Cc4ccc(F)cc4)cc23)c1` displayed a melting point of 137 to 138 °C.

`Cc1c[nH]c2c([N+](=O)[O-])ccc(C)c2c1=O` displayed a melting point of 250 to 262 °C.

For the molecule `COc1ccc(C=C(C)[N+](=O)[O-])c(OC)c1`, the melting point lay within 80 to 81 °C. As for `CCCCCCCCCCCC(=O)N[C@@H](C)C(=O)N[C@H](CCC(=O)OCc1ccccc1)C(N)=O`, the melting point stood at 169 °C.

`O=C1c2ccccc2C(=O)c2sccc21`: the melting point lay within 232 to 234 °C. For `COc1cc2c(cc1OC)CN(C(=O)Cc1ccc([N+](=O)[O-])cc1)CC2` the value was 110 to 111 °C. For `COc1cc(C)c(S(=O)(=O)c2ccccc2)cc1OC` the value was 162 to 163 °C; for `COc1ccc2c(c1)OCC21C(=O)N(Cc2ccccn2)c2ccccc21` (stereo not drawn), 122 to 123 °C; for `C[C@@](O)(C(=O)Nc1ccc(S(=O)(=O)c2ccccc2)cc1F)C(F)(F)F`, 121 to 122 °C.

Molecule `Cc1noc(C)c1C(=O)Nc1ccc(-n2nc(C(F)(F)F)cc2C2CC2)cc1` displayed a melting point of 170 to 172 °C. `CCCCOc1ccc(CC(CC(=O)NO)S(=O)(=O)c2ccc(OC)cc2)cc1` (stereo not drawn) returned a melting point of 55 to 60 °C. `O=C(OC1CCCCCCC1=O)c1ccccc1` (stereo not drawn) returned a melting point of 92 to 93 °C. Take `COc1cc(OCc2nc(-c3ccco3)oc2C)ccc1COc1nn(Cc2ccccc2)cc1C=O`: the melting point was in the range of 147 to 148 °C. In turn, `Cn1nnc2ccc(C(c3ccc(Cl)cc3)n3ccnc3)cc21` (stereo not drawn) gave a melting point of 87.7 °C.

As for `CC(=O)OC(c1ccc(Cl)c2nc3n(c12)CCCN3c1ccc(Cl)cc1Cl)C1CC1` (stereo not drawn), the melting point was 208 to 210 °C.

As for `CC(=O)OC1CC2=CCC3C4CCC(C(C)CBr)C4(C)CCC3C2(C)C(OC(C)=O)C1` (stereo not drawn), the melting point lay within 75 to 76 °C. The molecule `COC(=O)C(C)(c1ccc([N+](=O)[O-])cc1)c1cc(C)c(C(=O)c2ccc(Cl)cc2)n1C` (stereo not drawn) showed a melting point of 181 to 182 °C. For `Cc1cc(C)c2ncc(NC(=O)Cc3cc(C(C)(C)C)c(O)c(C(C)(C)C)c3)c(-c3ccccc3Cl)c2c1` the value was 189 to 190 °C. For `OCC1OC(n2cnc3c2ncn2ccnc32)CC1O` (stereo not drawn) the value was 138 to 141 °C; for `CC(=O)C(=Cc1ccc(O)c(O)c1)C(C)=O`, 134 to 137 °C; for `CSC(=C(C#N)C#N)N1CCc2ccccc2CC1`, 129 to 132 °C.

The molecule `O=C1Nc2ccccc2C12COc1c(Cl)cc3c(c12)OCCO3` (stereo not drawn) displayed a melting point of 255 to 257 °C. With `O=C(NC1CCC1)c1ccc2nonc2c1` the figure was 175 to 176 °C; with `O=C(Nc1ccc(F)c(C(F)(F)F)c1)c1csc2cc(Oc3cc(CO)ncn3)ccc12`, 138 to 140 °C; with `Cc1ccc(-c2cc(NCCN(C)C)c3ccccc3n2)s1`, 103 to 105 °C. In turn, `O=C(C1NCCc2occc21)N1CCCC1` (stereo not drawn) returned a melting point of 85 to 86 °C. The molecule `CCOC(=O)Cc1ccc2c(c1)sc1cc(N(C)C)ccc12` came in with a melting point of 115 to 120 °C. With `CNc1cc(Oc2ccc(NC(=O)Nc3ccc(Br)c(C(F)(F)F)c3)cc2)ncn1` the figure was 161 to 164 °C; with `O=C(O)c1ccc(OCC(O)c2cc3ccccc3o2)cc1` (stereo not drawn), 153 to 155 °C; with `CC1=C(C(=O)Nc2ccc(Cl)c(C(=O)OC(C)C)c2)SCCS1`, 122 to 124 °C. Regarding `Cc1cccc2cc3c(=O)n(CCOC(=O)NCCN(C)C)cc(C(=O)NCCN(C)C)c3nc12`, the melting point was 75 to 76 °C. With `CCCc1nc2c(N)ncc(Br)c2n1CCOCCNS(C)(=O)=O` the figure was 129 to 131 °C; with `CC(C)C(c1ccc(N)cc1)n1cncn1` (stereo not drawn), 118 °C.

On to `O=C(NCCc1ccccc1)c1ccccc1-c1ccccc1CNS(=O)(=O)c1cccc(F)c1`, for which the melting point was determined as 153 °C. With `CS(=O)(=O)c1cc(C(=O)O)c(N)cc1Cl` the figure was 284 to 286 °C; with `CC(C)[C@H](NC(=O)OC(C)(C)C)C(=O)NCCCN1CCN(CCCNc2cccc3c2C(=O)c2ccccc2C3=O)CC1`, 108 °C. For `C=C(C)C(=O)Oc1ccccc1NS(C)(=O)=O` the value was 88 to 90 °C; for `O=NN(CCCl)C(=O)NCc1ccccn1`, 70 °C; for `C=C1CCC2(Cc3ccccc3)C3Cc4ccc(O)cc4C2(CCN3CC2CC2)C1` (stereo not drawn), 212 °C.

A word on the melting point: it is the temperature, or range, at which the solid turns liquid.

(Values after a melting point compilation (Tetko et al.; mined from patent text by program, amines drawn as free bases though some values may be those of a salt).)
